Data published in US12233129B2, “Methods and compositions for the treatment of cancer” (priority 2019, dated 2025).

What was measured:
Assay in all cases: Annexin V staining and flow cytometry (positive control)
Type in all cases: cell-based, human
Details in all cases: 100 nM, 24 hours
CCD-18Co = test system: CCD-18Co
Experimental: (§1) Apoptosis in cells was assessed using an Annexin V Apoptosis Detection Kit (BD Pharmingen, San Jose, CA, USA) analyzed by using a BD Accuri C6 flow cytometer according to the manufacturer's instructions.
(§2) HCT-116 or SW48 were transfected with GFP empty vector or GFP-UBXN2A using the Neon electrotransfection system (HCT-116 and SW48) or lipofectamin 2000 (CCD-118-Co), achieving around 80% transfection efficiency. Apoptosis in cells was assessed using an Annexin V Apoptosis Detection Kit (BD Pharmingen, San Jose, CA) analyzed by a BD Accuri C6 flow cytometer according to the manufacturer's instructions. In each individual experiment, GFP expressing cells were first gated and then plotted versus Annexin V positive cells. 10,000 gated events were collected per sample. An apoptotic inducer, staurosporine (Sigma), was used as a positive control in all experiments.
(§3) FIG. 12: Annexin V staining and flow cytometry is a valid assay for measurement of early apoptosis. Un-transfected CCD-18Co, HCT-116, and SW48 cells were incubated with vehicle or staurosporine, a well-known inducer of apoptosis in a wide range of cell lines, for 24 hours. Subsequently, cells were stained with BD Biosciences Cy5 Annexin V and read on an Accuri C6 flow cytometer. Panel A. The histograms show a comparison of the distribution of Annexin V positive cells in un-transfected CCD-18Co, HCT-116 and SW48 cells (no gating). […] Panel C-D: We conducted a set of IP experiments to further confirm UBXN2A can only bind to the SBD domain and not the ATP domain. HCT-116 cells were transiently transfected with SBD domain or ATP domain of mot-2. After 36 hours, cell lysates were prepared followed by immunoprecipitation using anti-UBXN2A immobilized on magnetic protein G beads. Immunoprecipitation experiments verified UBXN2A binds to the SBD domain of mot-2 (amino acid residue 432-679) in HCT-116 cells and not the ATP domain (amino acid residue 1-437). This set of immunoprecipitation experiments verified results achieved in Y2H experiments. […]

HCT-116 = test system: HCT-116
Experimental: as §1, §2, §3

SW48 = test system: SW48
Experimental: as §1, §2, §3

Measured: apoptosis (Annexin V positive cells)

CN[C@@H]1C[C@H]2O[C@@](C)([C@@H]1OC)n1c3ccccc3c3c4c(c5c6ccccc6n2c5c31)C(=O)NC4 [staurosporine]
induce significant apoptosis: all assays above
